Data published in US12559529B2, “NPY2 receptor agonists” (Boehringer Ingelheim International GmbH, priority 2019, dated 2026).
*1 amine or outer side, *2 acyl side, *3 side chain or, on linkers, in order; H or OH if unused. Where a SMILES comes first, the peptide text is derived from it. Side-chain parts run from the residue outwards. The star is where a group is joined. C18 diacid = O=C(O)CCCCCCCCCCCCCCCCC(=O)*; γGlu = O=C(O)[C@H](CCC(=O)[*:2])N[*:1]; Isovaleryl = CC(C)CC(=O)*; AEEA = NCCOCCOCC(=O)O

Biological target: T1, Human Neuropeptide Y2 Receptor (Homo sapiens, UniProt P49146)
T1 construct: purchased CHEMICON HTS066M
T1 sequence (P49146 1-381): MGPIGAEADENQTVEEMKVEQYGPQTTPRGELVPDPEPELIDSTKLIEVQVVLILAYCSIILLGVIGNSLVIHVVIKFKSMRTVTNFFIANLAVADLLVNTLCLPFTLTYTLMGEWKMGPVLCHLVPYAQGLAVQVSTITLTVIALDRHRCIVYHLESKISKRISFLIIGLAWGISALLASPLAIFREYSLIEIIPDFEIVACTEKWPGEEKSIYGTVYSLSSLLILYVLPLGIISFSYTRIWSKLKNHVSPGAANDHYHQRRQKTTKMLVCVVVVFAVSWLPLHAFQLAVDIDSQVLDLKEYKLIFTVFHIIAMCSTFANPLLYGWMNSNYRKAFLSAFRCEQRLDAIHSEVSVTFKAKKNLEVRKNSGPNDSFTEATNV
Assay: Radioligand binding competition assay (RLB)
Settings: Table 3; human 125I-PYY (1-36) 0.02 nM, Y2 receptor membranes; read-out: Ki
Procedure, shortened: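 Competition binding at commercial human NPY Y2 membrane preparations, 0.5 μg protein per well, 2 h incubation at room temperature. Bound and free ligand were separated on GF/C filters and counted; IC50 was fitted by nonlinear regression.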

SMILES	Ki
CC(C)CC(=O)N[C@@H](C)C(=O)N1CCC[C@H]1C(=O)N[C@@H](CCC(=O)O)C(=O)N[C@@H](CCCCNC(=O)COCCOCCNC(=O)COCCOCCNC(=O)CC[C@H](NC(=O)CCCCCCCCCCCCCCCCC(=O)O)C(=O)O)C(=O)N1CCC[C@H]1C(=O)N[C@@H](CCC(=O)O)C(=O)N[C@@H](CCC(=O)O)C(=O)N[C@@H](C)C(=O)N[C@@H](C)C(=O)N[C@@H](CO)C(=O)N1CCC[C@H]1C(=O)N[C@@H](CCC(=O)O)C(=O)N[C@@H](CCC(=O)O)C(=O)N[C@@H](CC(C)C)C(=O)N[C@@H](CCC(N)=O)C(=O)N[C@@H](CCCNC(=N)N)C(=O)N[C@@H](Cc1ccc(O)cc1)C(=O)N[C@@H](Cc1ccc(O)cc1)C(=O)N[C@H](C(=O)N[C@@H](CO)C(=O)N[C@@H](C)C(=O)N[C@@H](CCCNC(=N)N)C(=O)N[C@@H](Cc1c[nH]cn1)C(=O)N[C@@H](Cc1ccc(O)cc1)C(=O)N[C@@H](Cc1ccc(O)cc1)C(=O)N[C@@H](CC(N)=O)C(=O)N[C@@H](Cc1c[nH]c2ccccc12)C(=O)N[C@@H](CC(C)C)C(=O)N[C@H](C(=O)N[C@@H](CCCNC(=N)N)C(=O)N[C@@H](CCC(N)=O)C(=O)N[C@@H](CCCNC(=N)N)C(=O)N[C@@H](Cc1ccc(O)cc1)C(N)=O)[C@@H](C)O)C(C)C [Compound 141, N{alpha-4}-(3-methylbutanoyl)-N{epsilon-7}-[2-(2-{2-[2-(2-{2-[(4S)-4-carboxy-4-(17-carboxyheptadecanamido)butanamido]ethoxy}ethoxy)acetamido]ethoxy}ethoxy)acetamido]-[4A,7K,9E,11A,18Q,22V,24A,28Y,30W,31L]hPYY (4-36)] (Isovaleryl-APEK([AEEA-AEEA-γGlu-C18 diacid])PEEAASPEELQRYYVSARHYYNWLTRQRY-NH2)	3.12 nM
CC(C)CC(=O)N[C@@H](C)C(=O)N1CCC[C@H]1C(=O)N[C@@H](CCC(=O)O)C(=O)N[C@@H](CCCCNC(=O)COCCOCCNC(=O)COCCOCCNC(=O)CC[C@H](NC(=O)CCCCCCCCCCCCCCCCC(=O)O)C(=O)O)C(=O)N[C@@H](C)C(=O)N[C@@H](CCC(=O)O)C(=O)N[C@@H](CCC(=O)O)C(=O)N[C@@H](CC(=O)O)C(=O)N[C@@H](C)C(=O)N[C@@H](CO)C(=O)N1CCC[C@H]1C(=O)N[C@@H](CCC(=O)O)C(=O)N[C@@H](CCC(=O)O)C(=O)N[C@@H](CC(C)C)C(=O)N[C@@H](CCC(N)=O)C(=O)N[C@@H](CCC(N)=O)C(=O)N[C@@H](Cc1ccc(O)cc1)C(=O)N[C@@H](Cc1ccc(O)cc1)C(=O)N[C@H](C(=O)N[C@@H](CO)C(=O)N[C@@H](CC(C)C)C(=O)N[C@@H](CCCNC(=N)N)C(=O)N[C@@H](Cc1c[nH]cn1)C(=O)N[C@@H](Cc1ccc(O)cc1)C(=O)N[C@@H](Cc1ccc(O)cc1)C(=O)N[C@@H](CC(N)=O)C(=O)N[C@@H](Cc1c[nH]c2ccccc12)C(=O)N[C@@H](CC(C)C)C(=O)N[C@H](C(=O)N[C@@H](CCCNC(=N)N)C(=O)N[C@@H](CCC(N)=O)C(=O)N[C@@H](CCCNC(=N)N)C(=O)N[C@@H](Cc1ccc(O)cc1)C(N)=O)[C@@H](C)O)C(C)C [Compound 144, N{alpha-4}-(3-methylbutanoyl)-N{epsilon-7}-[2-(2-{2-[2-(2-{2-[(4S)-4-carboxy-4-(17-carboxyheptadecanamido)butanamido]ethoxy}ethoxy)acetamido]ethoxy}ethoxy)acetamido]-[4A,7K,8A,9E,18Q,19Q,22V,28Y,30W,31L]hPYY (4-36)] (Isovaleryl-APEK([AEEA-AEEA-γGlu-C18 diacid])AEEDASPEELQQYYVSLRHYYNWLTRQRY-NH2)	8.92 nM

Compounds with a lower Ki, results first:

Ki	SMILES
0.89 nM	CC(C)CC(=O)N[C@@H](C)C(=O)N1CCC[C@H]1C(=O)N[C@@H](CCC(=O)O)C(=O)N[C@@H](CCCCNC(=O)COCCOCCNC(=O)COCCOCCNC(=O)CC[C@H](NC(=O)CCCCCCCCCCCCCCCCC(=O)O)C(=O)O)C(=O)N1CCC[C@H]1C(=O)N[C@@H](CCC(=O)O)C(=O)N[C@@H](C)C(=O)N[C@@H](CC(=O)O)C(=O)N[C@@H](CO)C(=O)N[C@@H](CO)C(=O)N1CCC[C@H]1C(=O)N[C@@H](CCC(=O)O)C(=O)N[C@@H](CCC(=O)O)C(=O)N[C@@H](CC(C)C)C(=O)N[C@@H](CCC(N)=O)C(=O)N[C@@H](CCCNC(=N)N)C(=O)N[C@@H](Cc1ccc(O)cc1)C(=O)N[C@@H](Cc1ccc(O)cc1)C(=O)N[C@H](C(=O)N[C@@H](CO)C(=O)N[C@@H](CC(C)C)C(=O)N[C@@H](CCCNC(=N)N)C(=O)N[C@@H](Cc1c[nH]cn1)C(=O)N[C@@H](Cc1ccc(O)cc1)C(=O)N[C@@H](Cc1ccc(O)cc1)C(=O)N[C@@H](CC(N)=O)C(=O)N[C@@H](Cc1c[nH]c2ccccc12)C(=O)N[C@@H](CC(C)C)C(=O)N[C@H](C(=O)N[C@@H](CCCNC(=N)N)C(=O)N[C@@H](CCC(N)=O)C(=O)N[C@@H](CCCNC(=N)N)C(=O)N[C@@H](Cc1ccc(O)cc1)C(N)=O)[C@@H](C)O)C(C)C [Compound 136, N{alpha-4}-(3-methylbutanoyl)-N{epsilon-7}-[2-(2-{2-[2-(2-{2-[(4S)-4-carboxy-4-(17-carboxyheptadecanamido)butanamido]ethoxy}ethoxy)acetamido]ethoxy}ethoxy)acetamido]-[4A,7K,9E,10A,12S,18Q,22V,28Y,30W,31L]hPYY (4-36)] (Isovaleryl-APEK([AEEA-AEEA-γGlu-C18 diacid])PEADSSPEELQRYYVSLRHYYNWLTRQRY-NH2)
1.42 nM	CC(C)CC(=O)N[C@@H](C)C(=O)N1CCC[C@H]1C(=O)N[C@@H](C)C(=O)N[C@@H](CCCCNC(=O)COCCOCCNC(=O)COCCOCCNC(=O)CC[C@H](NC(=O)CCCCCCCCCCCCCCCCC(=O)O)C(=O)O)C(=O)N1CCC[C@H]1C(=O)N[C@@H](CCC(=O)O)C(=O)N[C@@H](CCC(=O)O)C(=O)N[C@@H](CC(=O)O)C(=O)N[C@@H](C)C(=O)N[C@@H](CO)C(=O)N1CCC[C@H]1C(=O)N[C@@H](CCC(=O)O)C(=O)N[C@@H](CCC(=O)O)C(=O)N[C@@H](CC(C)C)C(=O)N[C@@H](CCC(N)=O)C(=O)N[C@@H](CCC(N)=O)C(=O)N[C@@H](Cc1ccc(O)cc1)C(=O)N[C@@H](Cc1ccc(O)cc1)C(=O)N[C@H](C(=O)N[C@@H](CO)C(=O)N[C@@H](CC(C)C)C(=O)N[C@@H](CCCNC(=N)N)C(=O)N[C@@H](Cc1c[nH]cn1)C(=O)N[C@@H](Cc1ccc(O)cc1)C(=O)N[C@@H](Cc1ccc(O)cc1)C(=O)N[C@@H](CC(N)=O)C(=O)N[C@@H](Cc1c[nH]c2ccccc12)C(=O)N[C@@H](CC(C)C)C(=O)N[C@H](C(=O)N[C@@H](CCCNC(=N)N)C(=O)N[C@@H](CCC(N)=O)C(=O)N[C@@H](CCCNC(=N)N)C(=O)N[C@@H](Cc1ccc(O)cc1)C(N)=O)[C@@H](C)O)C(C)C [Compound 138, N{alpha-4}-(3-methylbutanoyl)-N{epsilon-7}-[2-(2-{2-[2-(2-{2-[(4S)-4-carboxy-4-(17-carboxyheptadecanamido)butanamido]ethoxy}ethoxy)acetamido]ethoxy}ethoxy)acetamido]-[4A,6A,7K,9E,18Q,19Q,22V,28Y,30W,31L]hPYY (4-36)]
1.17 nM	CC(C)CC(=O)N[C@@H](C)C(=O)N1CCC[C@H]1C(=O)N[C@@H](CCC(=O)O)C(=O)N[C@@H](CCCCNC(=O)COCCOCCNC(=O)COCCOCCNC(=O)CC[C@H](NC(=O)CCCCCCCCCCCCCCCCC(=O)O)C(=O)O)C(=O)N1CCC[C@H]1C(=O)N1CCC[C@H]1C(=O)N[C@@H](CCC(=O)O)C(=O)N[C@@H](CCC(=O)O)C(=O)N[C@@H](C)C(=O)N[C@@H](CO)C(=O)N1CCC[C@H]1C(=O)N[C@@H](CCC(=O)O)C(=O)N[C@@H](CCC(=O)O)C(=O)N[C@@H](CC(C)C)C(=O)N[C@@H](CCC(N)=O)C(=O)N[C@@H](CCCNC(=N)N)C(=O)N[C@@H](Cc1ccc(O)cc1)C(=O)N[C@@H](Cc1ccc(O)cc1)C(=O)N[C@H](C(=O)N[C@@H](CO)C(=O)N[C@@H](CC(C)C)C(=O)N[C@@H](CCCNC(=N)N)C(=O)N[C@@H](Cc1c[nH]cn1)C(=O)N[C@@H](Cc1ccc(O)cc1)C(=O)N[C@@H](Cc1ccc(O)cc1)C(=O)N[C@@H](CC(N)=O)C(=O)N[C@@H](Cc1c[nH]c2ccccc12)C(=O)N[C@@H](CC(C)C)C(=O)N[C@H](C(=O)N[C@@H](CCCNC(=N)N)C(=O)N[C@@H](CCC(N)=O)C(=O)N[C@@H](CCCNC(=N)N)C(=O)N[C@@H](Cc1ccc(O)cc1)C(N)=O)[C@@H](C)O)C(C)C [Compound 142, N{alpha-4}-(3-methylbutanoyl)-N{epsilon-7}-[2-(2-{2-[2-(2-{2-[(4S)-4-carboxy-4-(17-carboxyheptadecanamido)butanamido]ethoxy}ethoxy)acetamido]ethoxy}ethoxy)acetamido]-[4A,7K,9P,11E,18Q,22V,28Y,30W,31L]hPYY (4-36)]
